Results published in ChEMBL document CHEMBL5705888, “Substrate specificity and inhibitors of LRRK2, a protein kinase mutated in Parkinson's disease” (Biochem J, 2009).

Assays:
[1] = target: T1, Serine/threonine-protein kinase Sgk1 (Homo sapiens) (UniProt O00141); experiment: Residual activity of SGK1 (unknown origin) at 10 uM incubated for 30 mins in presence of [gamma-33P]ATP by multidrop micro reagent based assay relative to control
T1 sequence (whole entry): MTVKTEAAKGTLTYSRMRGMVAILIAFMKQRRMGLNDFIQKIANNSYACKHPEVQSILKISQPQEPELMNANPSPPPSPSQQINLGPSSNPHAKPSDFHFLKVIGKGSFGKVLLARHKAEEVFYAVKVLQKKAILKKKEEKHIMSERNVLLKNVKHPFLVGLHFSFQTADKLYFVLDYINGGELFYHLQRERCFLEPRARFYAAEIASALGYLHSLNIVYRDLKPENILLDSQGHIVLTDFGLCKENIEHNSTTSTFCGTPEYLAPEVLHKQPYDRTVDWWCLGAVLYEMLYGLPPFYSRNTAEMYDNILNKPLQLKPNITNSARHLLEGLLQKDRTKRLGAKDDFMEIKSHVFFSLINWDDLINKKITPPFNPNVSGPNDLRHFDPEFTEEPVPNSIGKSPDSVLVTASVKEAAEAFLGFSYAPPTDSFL

[2] = target: T2, Protein kinase C zeta type (Homo sapiens) (UniProt Q05513); experiment: Inhibition of PKCzeta (unknown origin) at 10 uM incubated for 30 mins in presence of [gamma-33P]ATP by multidrop micro reagent based assay relative to control; values are per cent of control
T2 sequence (whole entry): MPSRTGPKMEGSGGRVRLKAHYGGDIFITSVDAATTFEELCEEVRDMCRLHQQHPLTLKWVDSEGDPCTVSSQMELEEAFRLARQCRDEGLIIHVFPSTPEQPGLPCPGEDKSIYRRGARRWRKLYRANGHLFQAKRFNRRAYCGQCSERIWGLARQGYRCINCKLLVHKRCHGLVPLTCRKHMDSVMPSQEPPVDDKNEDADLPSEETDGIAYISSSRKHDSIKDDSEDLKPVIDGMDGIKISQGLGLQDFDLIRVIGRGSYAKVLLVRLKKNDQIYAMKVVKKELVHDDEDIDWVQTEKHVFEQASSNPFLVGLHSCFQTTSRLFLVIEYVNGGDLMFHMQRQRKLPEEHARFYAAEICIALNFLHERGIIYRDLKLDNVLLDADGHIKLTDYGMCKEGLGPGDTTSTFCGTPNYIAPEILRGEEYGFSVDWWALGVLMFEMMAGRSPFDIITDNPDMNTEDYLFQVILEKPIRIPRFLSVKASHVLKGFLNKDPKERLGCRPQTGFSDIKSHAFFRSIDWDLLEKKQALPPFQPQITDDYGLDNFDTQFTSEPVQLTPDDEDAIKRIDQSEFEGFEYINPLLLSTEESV

[3] = target: Mitogen-activated protein kinase 8 (Homo sapiens) (UniProt P45983); experiment: Inhibition of JNK1 (unknown origin) at 10 uM incubated for 30 mins in presence of [gamma-33P]ATP by multidrop micro reagent based assay relative to control; values are per cent of control
Mitogen-activated protein kinase 8 (Homo sapiens), sequence (P45983 whole entry): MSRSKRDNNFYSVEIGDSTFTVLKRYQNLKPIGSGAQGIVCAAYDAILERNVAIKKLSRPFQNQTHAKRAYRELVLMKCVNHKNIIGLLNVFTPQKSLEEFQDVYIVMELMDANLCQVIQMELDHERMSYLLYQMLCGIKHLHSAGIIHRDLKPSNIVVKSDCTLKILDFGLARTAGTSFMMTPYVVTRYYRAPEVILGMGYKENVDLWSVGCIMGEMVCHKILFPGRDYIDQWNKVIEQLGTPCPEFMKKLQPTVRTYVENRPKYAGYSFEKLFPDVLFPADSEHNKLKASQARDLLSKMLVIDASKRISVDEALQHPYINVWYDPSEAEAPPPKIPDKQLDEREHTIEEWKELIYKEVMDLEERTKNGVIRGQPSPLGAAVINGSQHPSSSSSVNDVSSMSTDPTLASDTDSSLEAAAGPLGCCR

[4] = target: Serine/threonine-protein kinase PAK 6 (Homo sapiens) (UniProt Q9NQU5); experiment: Inhibition of PAK6 (unknown origin) at 10 uM incubated for 30 mins in presence of [gamma-33P]ATP by multidrop micro reagent based assay relative to control; values are per cent of control
Serine/threonine-protein kinase PAK 6 (Homo sapiens), sequence (Q9NQU5 whole entry, looked up): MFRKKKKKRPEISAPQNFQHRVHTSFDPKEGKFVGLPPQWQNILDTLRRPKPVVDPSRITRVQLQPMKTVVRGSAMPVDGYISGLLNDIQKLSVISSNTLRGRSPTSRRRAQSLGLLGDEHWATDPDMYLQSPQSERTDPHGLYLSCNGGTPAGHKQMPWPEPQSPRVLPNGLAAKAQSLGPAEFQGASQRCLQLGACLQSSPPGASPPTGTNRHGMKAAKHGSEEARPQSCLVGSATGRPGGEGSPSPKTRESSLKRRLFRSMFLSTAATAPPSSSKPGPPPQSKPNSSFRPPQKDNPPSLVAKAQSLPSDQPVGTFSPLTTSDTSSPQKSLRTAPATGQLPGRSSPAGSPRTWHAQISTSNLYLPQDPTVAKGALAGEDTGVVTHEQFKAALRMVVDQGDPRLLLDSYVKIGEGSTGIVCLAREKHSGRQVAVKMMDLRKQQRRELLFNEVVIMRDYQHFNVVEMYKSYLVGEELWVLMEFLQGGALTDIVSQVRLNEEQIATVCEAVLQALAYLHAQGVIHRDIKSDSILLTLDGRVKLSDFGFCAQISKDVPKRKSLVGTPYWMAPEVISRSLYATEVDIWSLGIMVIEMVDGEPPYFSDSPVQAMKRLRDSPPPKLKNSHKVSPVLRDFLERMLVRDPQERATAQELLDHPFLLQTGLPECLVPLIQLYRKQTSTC

[5] = target: Insulin receptor-related protein (Homo sapiens) (UniProt P14616); experiment: Inhibition of IRR (unknown origin) at 10 uM incubated for 30 mins in presence of [gamma-33P]ATP by multidrop micro reagent based assay relative to control
[6] = tested on: Leucine-rich repeat serine/threonine-protein kinase 2 (Homo sapiens), Q5S007 [G2019S]; experiment: Inhibition of LRRK2 G2019S mutant (unknown origin) at 10 uM incubated for 30 mins in presence of [gamma-33P]ATP by multidrop micro reagent based assay relative to control
Leucine-rich repeat serine/threonine-protein kinase 2 (Homo sapiens), Q5S007 [G2019S], sequence (Q5S007 whole entry G2019S): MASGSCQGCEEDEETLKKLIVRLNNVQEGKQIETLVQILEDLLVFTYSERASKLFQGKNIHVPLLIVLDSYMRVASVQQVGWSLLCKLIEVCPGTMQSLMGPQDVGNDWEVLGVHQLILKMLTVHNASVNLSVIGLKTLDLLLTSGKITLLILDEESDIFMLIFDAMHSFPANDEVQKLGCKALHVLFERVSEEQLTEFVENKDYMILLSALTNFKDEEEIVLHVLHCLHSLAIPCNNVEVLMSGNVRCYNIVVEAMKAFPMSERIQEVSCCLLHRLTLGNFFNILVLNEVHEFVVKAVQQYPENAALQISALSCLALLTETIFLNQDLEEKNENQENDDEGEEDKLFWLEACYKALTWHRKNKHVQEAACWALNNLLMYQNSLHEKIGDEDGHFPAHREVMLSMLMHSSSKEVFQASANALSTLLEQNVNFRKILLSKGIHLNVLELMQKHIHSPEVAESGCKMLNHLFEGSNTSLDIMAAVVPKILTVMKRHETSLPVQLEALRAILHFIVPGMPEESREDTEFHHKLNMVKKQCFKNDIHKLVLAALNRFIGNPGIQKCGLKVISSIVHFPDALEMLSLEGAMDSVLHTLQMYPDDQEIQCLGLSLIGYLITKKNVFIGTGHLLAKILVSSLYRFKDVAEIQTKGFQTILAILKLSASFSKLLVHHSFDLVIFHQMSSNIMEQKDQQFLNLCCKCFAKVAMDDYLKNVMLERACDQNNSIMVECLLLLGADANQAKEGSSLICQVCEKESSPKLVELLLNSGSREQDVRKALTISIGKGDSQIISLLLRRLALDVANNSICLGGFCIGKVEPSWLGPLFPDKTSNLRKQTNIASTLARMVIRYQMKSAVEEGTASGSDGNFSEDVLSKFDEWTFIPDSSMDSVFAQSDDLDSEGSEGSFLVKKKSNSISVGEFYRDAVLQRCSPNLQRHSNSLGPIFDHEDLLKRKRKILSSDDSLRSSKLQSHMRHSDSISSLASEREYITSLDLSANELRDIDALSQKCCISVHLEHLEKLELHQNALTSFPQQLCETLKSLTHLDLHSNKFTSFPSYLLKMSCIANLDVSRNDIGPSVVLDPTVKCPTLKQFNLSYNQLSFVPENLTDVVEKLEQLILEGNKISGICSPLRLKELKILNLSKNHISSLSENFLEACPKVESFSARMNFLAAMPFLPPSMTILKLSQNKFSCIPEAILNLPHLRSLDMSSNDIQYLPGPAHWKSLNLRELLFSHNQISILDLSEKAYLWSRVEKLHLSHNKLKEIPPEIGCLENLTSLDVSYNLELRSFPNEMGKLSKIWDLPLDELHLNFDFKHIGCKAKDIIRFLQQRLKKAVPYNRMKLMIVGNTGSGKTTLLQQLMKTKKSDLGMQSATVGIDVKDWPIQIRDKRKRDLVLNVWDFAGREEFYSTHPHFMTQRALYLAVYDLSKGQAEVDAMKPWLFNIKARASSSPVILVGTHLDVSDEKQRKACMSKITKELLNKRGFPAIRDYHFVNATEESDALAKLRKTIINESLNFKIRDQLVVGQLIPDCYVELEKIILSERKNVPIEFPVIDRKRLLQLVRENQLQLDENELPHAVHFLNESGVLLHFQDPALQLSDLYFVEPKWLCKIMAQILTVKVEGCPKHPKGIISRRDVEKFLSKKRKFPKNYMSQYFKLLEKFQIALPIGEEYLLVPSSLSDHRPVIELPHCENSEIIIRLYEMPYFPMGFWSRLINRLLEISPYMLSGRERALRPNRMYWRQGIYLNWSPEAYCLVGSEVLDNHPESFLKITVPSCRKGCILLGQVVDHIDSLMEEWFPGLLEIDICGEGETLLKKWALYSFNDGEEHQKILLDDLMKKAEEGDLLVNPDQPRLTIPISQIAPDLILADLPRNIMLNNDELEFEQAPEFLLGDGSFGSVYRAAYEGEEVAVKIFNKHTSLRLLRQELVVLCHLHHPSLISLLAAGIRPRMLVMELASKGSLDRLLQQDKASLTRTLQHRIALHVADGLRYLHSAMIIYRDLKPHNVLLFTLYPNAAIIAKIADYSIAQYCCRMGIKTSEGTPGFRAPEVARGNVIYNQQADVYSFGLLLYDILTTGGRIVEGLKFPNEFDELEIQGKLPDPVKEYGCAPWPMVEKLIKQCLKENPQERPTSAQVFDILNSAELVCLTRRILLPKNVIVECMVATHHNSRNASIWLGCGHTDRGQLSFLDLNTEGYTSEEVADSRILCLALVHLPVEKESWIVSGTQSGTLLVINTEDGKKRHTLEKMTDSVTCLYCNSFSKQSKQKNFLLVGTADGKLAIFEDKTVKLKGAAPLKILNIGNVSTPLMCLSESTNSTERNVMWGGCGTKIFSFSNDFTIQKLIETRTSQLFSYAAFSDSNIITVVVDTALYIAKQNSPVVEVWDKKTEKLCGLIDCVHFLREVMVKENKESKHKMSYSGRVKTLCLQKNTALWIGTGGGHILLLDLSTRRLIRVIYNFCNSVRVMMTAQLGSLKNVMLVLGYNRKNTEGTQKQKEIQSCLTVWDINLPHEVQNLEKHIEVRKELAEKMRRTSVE

[7] = target: MAP kinase-interacting serine/threonine-protein kinase 1 (Homo sapiens) (UniProt Q9BUB5); experiment: Inhibition of MNK1 (unknown origin) at 1 uM incubated for 30 mins in presence of [gamma-33P]ATP by multidrop micro reagent based assay relative to control; values are per cent of control
MAP kinase-interacting serine/threonine-protein kinase 1 (Homo sapiens), sequence (Q9BUB5 whole entry, looked up): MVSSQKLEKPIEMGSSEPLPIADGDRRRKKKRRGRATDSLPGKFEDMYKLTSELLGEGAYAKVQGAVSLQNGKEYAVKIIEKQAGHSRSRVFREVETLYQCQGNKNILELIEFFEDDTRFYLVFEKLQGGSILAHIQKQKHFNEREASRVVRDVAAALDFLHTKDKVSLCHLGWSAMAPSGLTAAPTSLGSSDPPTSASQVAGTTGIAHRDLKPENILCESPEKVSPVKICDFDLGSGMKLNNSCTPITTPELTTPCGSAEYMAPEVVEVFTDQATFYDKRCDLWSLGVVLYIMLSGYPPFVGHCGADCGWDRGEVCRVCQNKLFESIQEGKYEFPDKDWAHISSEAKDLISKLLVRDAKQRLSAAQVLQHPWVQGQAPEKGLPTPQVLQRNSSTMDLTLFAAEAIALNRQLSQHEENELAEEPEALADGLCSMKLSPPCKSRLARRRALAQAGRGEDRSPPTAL

[8] = target: T3, Serine/threonine-protein kinase Nek2 (Homo sapiens) (UniProt P51955); experiment: Inhibition of NEK2a (unknown origin) at 1 uM incubated for 30 mins in presence of [gamma-33P]ATP by multidrop micro reagent based assay relative to control; values are per cent of control
T3 sequence (whole entry): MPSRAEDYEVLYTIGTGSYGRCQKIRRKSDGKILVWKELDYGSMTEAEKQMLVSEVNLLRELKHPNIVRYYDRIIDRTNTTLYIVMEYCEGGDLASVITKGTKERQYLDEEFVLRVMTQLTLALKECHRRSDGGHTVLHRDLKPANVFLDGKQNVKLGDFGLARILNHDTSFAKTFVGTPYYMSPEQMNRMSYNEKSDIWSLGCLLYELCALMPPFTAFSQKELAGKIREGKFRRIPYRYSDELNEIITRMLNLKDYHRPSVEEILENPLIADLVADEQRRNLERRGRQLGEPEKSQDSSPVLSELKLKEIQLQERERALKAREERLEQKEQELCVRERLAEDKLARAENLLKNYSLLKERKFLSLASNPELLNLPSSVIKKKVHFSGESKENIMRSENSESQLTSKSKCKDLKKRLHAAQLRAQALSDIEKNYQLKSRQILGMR

[9] = target: T4, Mitogen-activated protein kinase 15 (Homo sapiens) (UniProt Q8TD08); experiment: Inhibition of ERK8 (unknown origin) at 1 uM incubated for 30 mins in presence of [gamma-33P]ATP by multidrop micro reagent based assay relative to control; values are per cent of control
T4 sequence (whole entry): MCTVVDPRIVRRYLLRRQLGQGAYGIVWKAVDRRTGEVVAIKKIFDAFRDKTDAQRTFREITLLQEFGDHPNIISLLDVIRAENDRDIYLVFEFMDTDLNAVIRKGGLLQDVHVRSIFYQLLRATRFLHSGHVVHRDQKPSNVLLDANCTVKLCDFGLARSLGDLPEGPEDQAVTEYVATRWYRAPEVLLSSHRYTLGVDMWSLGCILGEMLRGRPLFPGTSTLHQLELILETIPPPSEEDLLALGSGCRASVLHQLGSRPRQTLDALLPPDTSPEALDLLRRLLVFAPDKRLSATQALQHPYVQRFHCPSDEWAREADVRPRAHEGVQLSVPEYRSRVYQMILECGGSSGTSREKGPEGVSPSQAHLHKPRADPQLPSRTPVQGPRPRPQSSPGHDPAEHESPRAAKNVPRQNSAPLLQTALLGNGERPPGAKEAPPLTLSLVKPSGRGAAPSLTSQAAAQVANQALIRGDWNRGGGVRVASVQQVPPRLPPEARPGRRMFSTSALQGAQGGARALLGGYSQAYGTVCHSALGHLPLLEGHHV

Row | Structure (SMILES) | residual activity [1] [%] | residual activity [2] [%] | residual activity [3] [%] | residual activity [4] [%] | inhibition [5] [%] | inhibition [6] [%] | residual activity [7] [%] | residual activity [8] [%] | residual activity [9] [%]
1 | C[C@@H](N)[C@H]1CC[C@H](C(=O)Nc2ccncc2)CC1 | 50 | 69 | 106 | 96 | 91 | 11 |  |  | 
2 | CC1=C(C(=O)Nc2cc3cn[nH]c3cc2F)C(c2ccc(C(F)(F)F)cc2)CC(=O)N1 (stereo not drawn) |  |  |  |  |  |  | 91 | 106 | 95
3 | O=S(=O)(c1cccc2cnccc12)N1CCCNCC1 [FASUDIL] | 69 | 66 | 115 | 110 | 86 | 67 |  |  | 
4 | Cc1cncc2cccc(S(=O)(=O)N3CCCNC[C@@H]3C)c12 |  |  |  |  |  |  | 50 | 99 | 
5 | CCn1c(-c2nonc2N)nc2cnc(Oc3cccc(NC(=O)c4ccc(OCCN5CCOCC5)cc4)c3)cc21 [GSK-269962A] |  |  |  |  |  |  |  |  | 27
